16 molecules from patent US11535630B2, “Apelin receptor (APJ) agonists and uses thereof” (Research Triangle Institute, priority 2015, dated 2022) can be followed below.

Like-named read-outs stand apart in the source and are kept apart here.

The target in series [1] is T1, apelin receptor (APJ) (Homo sapiens, UniProt P35414).
T1 sequence (P35414 1-380): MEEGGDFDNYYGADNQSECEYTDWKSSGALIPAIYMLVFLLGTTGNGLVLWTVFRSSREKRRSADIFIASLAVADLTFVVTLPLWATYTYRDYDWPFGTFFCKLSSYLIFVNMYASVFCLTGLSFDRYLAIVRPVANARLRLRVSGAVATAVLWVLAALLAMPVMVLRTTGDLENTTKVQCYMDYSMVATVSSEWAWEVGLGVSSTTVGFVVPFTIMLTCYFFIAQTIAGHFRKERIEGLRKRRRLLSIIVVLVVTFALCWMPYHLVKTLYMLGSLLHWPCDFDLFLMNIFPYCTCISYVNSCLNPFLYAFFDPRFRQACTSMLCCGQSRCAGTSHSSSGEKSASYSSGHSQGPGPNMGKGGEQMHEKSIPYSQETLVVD
Put plainly: In vitro apelin agonist activity (methods of Giddings et al., Apelin-13 as positive control). Type of series: cell-based. An excerpt:
Characterization of the Apelin Agonist Activity of the Compounds
1:39-47, the contents of which are hereby incorporated by reference in its entirety. Using the methods described in Giddings et al. and Apelin-13 as a positive control.

A short description of series [2]: Caco-2 cellular uptake / permeability assay (A-to-B, B-to-A). Type of series: in vitro ADME. The conditions noted are these: human, Caco-2, pH 7.4. The method, then: 5.3. Cellular Uptake Assay
Caco-2 cells (clone C2BBe1) were obtained from American Type Culture Collection (Manassas, Va,). Cell monolayers were grown to confluence on collagen-coated, microporous, polycarbonate membranes in 12-well Costar Transwell plates. Details of the plates and their certification are shown below. The permeability assay buffer was Hanks' balanced salt solution (HBSS) containing 10 mM HEPES and 15 mM glucose at a pH of 7.4. The buffer in the receiver chamber also contained 1% bovine serum albumin. The dosing solution concentration was 5 μM for each test article in the assay buffer. Cell monolayers were dosed on the apical side (A-to-B) or basolateral side (B-to-A) and incubated at 37° C. with 5% CO2 in a humidified incubator. Samples were taken from the donor and receiver chambers at 120 minutes. Each determination was performed in duplicate. After the experiment, all assay buffers were removed from the inserts. Cell monolayers were dosed with blank 500 μM lucifer yellow on the A-to-B side and blank HBSS on the B-to-A side and incubated at 37° C. Samples were taken from the B-to-A side at 60 minutes. The flux of lucifer yellow was measured for each monolayer to ensure no damage was inflicted to the cell monolayers during the flux period. All samples were analyzed by LC-MS/MS using electrospray ionization.
Where, dCr/dt is the slope of the cumulative concentration in the receiver compartment versus time in μM s^−1;
Vr is the volume of the receiver compartment in cm^3;
Vd is the volume of the donor compartment in cm^3;
CA is the average of the nominal dosing concentration and the measured 120-minute donor concentration in μM;
CN is the nominal concentration of the dosing solution in μM;
Cr^final is the cumulative receiver concentration in μM at the end of the incubation period;
Cd^final is the concentration of the donor in μM at the end of the incubation period.
Efflux ratio (ER) is defined as Papp (B-to-A)/Papp (A-to-B).

The test system of series [3] is male Sprague-Dawley rats. The series is described as follows: In vivo blood pressure lowering in conscious telemetered rats, oral gavage. Details: species or system rat. The conditions noted are these: for Diastolic blood pressure, 2-5 h mean change from baseline / MAP, 2-5 h mean change from baseline / Systolic blood pressure, 2-5 h mean change from baseline: rat; for Effect on blood pressure (in words): oral gavage 7.5, 15 or 30 mg/kg, male Sprague-Dawley rats. The method, then:
In Vivo Blood Pressure Lowering Activity of the Compounds
Select compounds were evaluated for their effects upon oral administration on hemodynamic changes, including blood pressure reduction, in conscious, telemetered male Sprague-Dawley rats. Apelin peptides are known to lower blood pressure, e.g., Tatemoto, K., et.al. Regul. Pept. 2001, 99, 87-92.
Animals were approximately 7-9 weeks of age and weighed between 247 g to 263 g just prior to surgery. Dose levels administered were 7.5, 15 or 30 mg/kg, dose volumes were 10 mL/kg, and dose route of administration was oral gavage. Animals were assigned to a crossover experimental treatment schedule as shown below.
Collected data included systolic, diastolic, and mean arterial blood pressure (MAP). Data collection time points were for pre-dose baseline approximately 48 h (prior to treatment 1) or approximately 24 h (prior to treatment 2-4) for 10 sec every 2 min. Data collection post-dose was collected through approximately 24 h (data collected for 10 sec every 2 min) per treatment. Resulting data is presented below as the 2-5 h mean change from baseline in mmHg.

Setting [4] is: apelin agonist potency as listed in Table 3 (Cellular Uptake Results), read-out: EC50.
The mark [5] stands for this setting: in vitro apelin agonist activity, methods of Giddings et al., Apelin-13 as positive control, read-out: EC50 (nM) Ave.

Consider `COc1cccc(OC)c1-c1cc(C(=O)N[C@@H](CCN2CCC(F)(F)CC2)CC(=O)NC2CCC2)nn1C1CCCC1` [compound 335, (3S)-N-cyclobutyl-3-{[1-cyclopentyl-5-(2,6-dimethoxyphenyl)-1H-pyrazol-3-yl]formamido}-5-(4,4-difluoropiperidin-1-yl)pentanamide], for which the EC50 in series [1] (setting [4]) and in series [1] (setting [5]) was 63 nM throughout. Also, in series [2], the efflux ratio – broadly, a quotient of directional permeabilities that is used to spot active efflux – at 120 min, 5 μM was found to be 1.

For the molecule `COc1cccc(OC)c1-c1cc(C(=O)N[C@@H](CCN2CCCC(F)(F)C2)CC(=O)NC2CCC2)nn1C1CCCC1` [compound 348, (3S)-N-cyclobutyl-3-{[1-cyclopentyl-5-(2,6-dimethoxyphenyl)-1H-pyrazol-3-yl]formamido}-5-(3,3-difluoropiperidin-1-yl)pentanamide], the EC50 in series [1] (setting [4]) and in series [1] (setting [5]) was 15 nM each time. Besides, in series [2], the efflux ratio at 120 min, 5 μM came to 2.1.

Consider `Cl.O=C(O)C[C@H](CCN1CCCC(F)(F)C1)NC(=O)c1cc(-c2ccccc2C(F)(F)F)n(C2CCCC2)n1` [compound 423, (3S)-3-({1-cyclopentyl-5-[2-(trifluoromethyl)phenyl]-1H-pyrazol-3-yl}formamido)-5-(3,3-difluoropiperidin-1-yl)pentanoic acid], for which the EC50 (usually the concentration that produces a half-maximal response) in series [1] (setting [5]) amounted to 35 nM. Besides, in series [3] (7.5 mg/kg oral gavage), the “Diastolic blood pressure, 2-5 h mean change from baseline” value was −9.9 mmHg; the “MAP, 2-5 h mean change from baseline” value is on record as −10.0 mmHg; the “Systolic blood pressure, 2-5 h mean change from baseline” value was −13.0 mmHg. Moreover, in series [3] (15 mg/kg oral gavage), the “Diastolic blood pressure, 2-5 h mean change from baseline” value was −7.3 mmHg; the “MAP, 2-5 h mean change from baseline” value is recorded as −8.4 mmHg; the “Systolic blood pressure, 2-5 h mean change from baseline” value is given as −9.8 mmHg. In series [3] (30 mg/kg oral gavage), the “Diastolic blood pressure, 2-5 h mean change from baseline” value is recorded as −8.3 mmHg; the “MAP, 2-5 h mean change from baseline” value is recorded as −9.3 mmHg; the “Systolic blood pressure, 2-5 h mean change from baseline” value was −10.7 mmHg. In addition, the “Effect on blood pressure (in words)” value in series [3] is recorded as “mild sustained decrease in blood pressure”.

Take `O=C(N[C@@H](CCN1CCCC(F)(F)C1)Cc1nnn[nH]1)c1cc(-c2ccccc2C(F)(F)F)n(C2CCCC2)n1` [compound 551, 1-cyclopentyl-N-[(2S)-4-(3,3-difluoropiperidin-1-yl)-1-(1H-1,2,3,4-tetrazol-5-yl)butan-2-yl]-5{2-(trifluoromethyl)phenyl]-1H-pyrazole-3-carboxamide]: the EC50 in series [1] (setting [5]) was 25 nM. Also, the “Diastolic blood pressure, 2-5 h mean change from baseline” value is −4.3 mmHg in series [3] (7.5 mg/kg oral gavage), −7.3 mmHg in series [3] (15 mg/kg oral gavage) and −8.4 mmHg in series [3] (30 mg/kg oral gavage). In addition, the “MAP, 2-5 h mean change from baseline” value is on record as −4.5 mmHg in series [3] (7.5 mg/kg oral gavage), −8.5 mmHg in series [3] (15 mg/kg oral gavage) and −9.8 mmHg in series [3] (30 mg/kg oral gavage). For the same molecule, the “Systolic blood pressure, 2-5 h mean change from baseline” value was −6.6 mmHg in series [3] (7.5 mg/kg oral gavage), −9.6 mmHg in series [3] (15 mg/kg oral gavage) and −11.3 mmHg in series [3] (30 mg/kg oral gavage). Besides, the “Effect on blood pressure (in words)” value in series [3] is “dose-dependent, mild sustained decrease in blood pressure”.

Regarding `O=C(O)C[C@H](CCN1C[C@@H](F)[C@H](F)C1)NC(=O)c1cc(-c2ccccc2C(F)(F)F)n(C2CCCC2)n1` [compound 631, (3S)-3-({1-cyclopentyl-5-[2-(trifluoromethyl)phenyl]-1H-pyrazol-3-yl}formamido)-5-[(3R,4R)-3,4-difluoropyrrolidin-1-yl]pentanoic acid], the EC50 in series [1] (setting [5]) was 75 nM.

For `CC(C(=O)O)[C@H](CCN1CC2C(C1)C2(F)F)NC(=O)c1cc(-c2ccccc2C(F)(F)F)n(C2CCCC2)n1` (stereo partly drawn) [compound 635, (2R,3S)-3-({1-cyclopentyl-5-[2-(trifluoromethyl)phenyl]-1H-pyrazol-3-yl}formamido)-5-{6,6-difluoro-3-azabicyclo[13.1.0]hexan-3-yl}-2-methylpentanoic acid], the EC50 in series [1] (setting [5]) was 13 nM.

Take `CC(C(=O)NC1CCC1)[C@H](CCN1CC2C(C1)C2(F)F)NC(=O)c1cc(-c2ccccc2C(F)(F)F)n(C2CCCC2)n1` (stereo partly drawn) [compound 636, (3S)-N-cyclobutyl-3-({1-cyclopentyl-5-[2-(trifluoromethyl)phenyl]-1H-pyrazol-3-yl}formamido)-5-{6,6-difluoro-3-azabicyclo[3.1.0]hexan-3-yl}-2-methylpentanamide]: the EC50 in series [1] (setting [5]) was found to be 158 nM.

For `CC(c1nnn[nH]1)[C@H](CCN1CC2C(C1)C2(F)F)NC(=O)c1cc(-c2ccccc2C(F)(F)F)n(C2CCCC2)n1` (stereo partly drawn) [compound 637, 1-cyclopentyl-N-[(3S)-1-{6,6-difluoro-3-azabicyclo[3.1.0]hexan-3-yl}-4-(1H-1,2,3,4-tetrazol-5-yl)pentan-3-yl]-5-[2-(trifluoromethyl)phenyl]-1H-pyrazole-3-carboxamide], in series [1] (setting [5]), the EC50 came out at 21 nM.

`C[C@@H](c1nnn[nH]1)[C@H](CCN1CC2C(C1)C2(F)F)NC(=O)c1cc(-c2ccccc2C(F)(F)F)n(C2CCCC2)n1` (stereo partly drawn) [compound 638, 1-cyclopentyl-N-[(3S,4R)-1-{6,6-difluoro-3-azabicyclo[3.1.0]hexan-3-yl}-4-(1H-1,2,3,4-tetrazol-5-yl)pentan-3-yl]-5-[2-(trifluoromethyl)phenyl]-1H-pyrazole-3-carboxamide]: the EC50 in series [1] (setting [5]) came out at 14 nM.

Consider `O=C(O)C[C@H](CCN1CC(F)CC(F)C1)NC(=O)c1cc(-c2ccccc2C(F)(F)F)n(C2CCCC2)n1` (stereo partly drawn) [compound 639, (3S)-3-({1-cyclopentyl-5-[2-(trifluoromethyl)phenyl]-1H-pyrazol-3-yl}formamido)-5-(3,5-difluoropiperidin-1-yl)pentanoic acid], for which the EC50 in series [1] (setting [5]) is 40 nM.

As for `O=C(N[C@@H](CCN1CCCC(F)(F)C1)Cc1nnn[nH]1)c1cc(-c2ncccc2C(F)(F)F)n(C2CCCC2)n1` [compound 641], the EC50 in series [1] (setting [5]) is 27 nM.

Take `O=C(O)C[C@H](CCN1C(=O)CCC1=O)NC(=O)c1cc(-c2ccccc2C(F)(F)F)n(C2CCCC2)n1` [compound 643, (3S)-3-({1-cyclopentyl-5-[2-(trifluoromethyl)phenyl]-1H-pyrazol-3-yl}formamido)-5-(2,5-dioxopyrrolidin-1-yl)pentanoic acid]: the EC50 in series [1] (setting [5]) came out at 182 nM.

Consider `COc1cccc(OC)c1-c1cc(C(=O)N[C@@H](CCC2CCCCC2)CC(=O)O)nn1C1CCCCCCC1` [compound 647, (3S)-5-cyclohexyl-3-{[1-cyclooctyl-5-(2,6-dimethoxyphenyl)-1H-pyrazol-3-yl]formamido}pentanoic acid], for which the EC50 in series [1] (EC50 (nM) Ave, in vitro apelin agonist activity, methods of Giddings et al., Apelin-13 as positive control) is above 10000 nM.

Regarding `COc1cccc(OC)c1-c1cc(C(=O)N[C@@H](CCC2CCCCC2)CC(=O)O)nn1CC1CCCCC1` [compound 648], the EC50 in series [1] (setting [5]) was above 10000 nM.

Consider `CCC(CC)n1nc(C(=O)N[C@@H](CCC2CCCCC2)CC(=O)O)cc1-c1c(OC)cccc1OC` [compound 649, (3S)-5-cyclohexyl-3-{[5-(2,6-dimethoxyphenyl)-1-(pentan-3-yl)-1H-pyrazol-3-yl]formamido}pentanoic acid], for which the EC50 in series [1] (setting [5]) is above 10000 nM.

In the case of `O=C(N[C@@H](CCN1C(=O)CCCC1=O)Cc1nnn[nH]1)c1cc(-c2ccccc2C(F)(F)F)n(C2CCCC2)n1` [compound 655, 1-cyclopentyl-N-[(2S)-4-(2,6-dioxopiperidin-1-yl)-1-(1H-1,2,3,4-tetrazol-5-yl)butan-2-yl]-5-[2-(trifluoromethyl)phenyl]-1H-pyrazole-3-carboxamide], the EC50 in series [1] (setting [5]) was determined as 66 nM.
